Data from the OligoGym collection.
HELM strings list units from the 5' end as sugar, base in round brackets, then linkage (d deoxyribose, r ribose, m 2'-O-methyl, p phosphodiester). Strings are as the collection lists them, not checked against the first reports. ss, as = sense and antisense strand; [lna] = locked nucleic acid (LNA); [fl2r] = 2'-fluoro

Settings: siRNA
Also: test system not given here.

Substance	target mRNA knockdown
RNA1{r(G)p.r(U)p.r(C)p.m(U)p.r(A)p.m(U)p.r(G)p.r(C)p.m(C)p.r(A)p.r(A)p.r(G)p.r(A)p.r(A)p.r(G)p.r(G)p.r(G)p.r(A)p.r(G)p.r(T)p.r(T)}|RNA2{r(C)p.r(U)p.r(C)p.r(C)p.r(C)p.r(U)p.r(U)p.r(C)p.r(U)p.m(U)p.r(G)p.r(G)p.m(C)p.r(A)p.m(U)p.r(A)p.r(G)p.r(A)p.r(C)p.r(T)p.r(T)}$$$RNA1{StrandType:ss}|RNA2{StrandType:as}$	72%
RNA1{r(A)p.r(G)p.r(C)p.r(U)p.r(C)p.r(U)p.r(U)p.m(U)p.r(G)p.r(U)p.m(C)p.r(A)p.r(C)p.m(C)p.r(U)p.m(C)p.r(U)p.r(C)p.r(U)p.r(T)p.r(T)}|RNA2{r(A)p.r(G)p.r(A)p.r(G)p.r(A)p.r(G)p.r(G)p.m(U)p.r(G)p.r(A)p.m(C)p.r(A)p.r(A)p.r(A)p.r(G)p.r(A)p.r(G)p.r(C)p.r(U)p.r(T)p.r(T)}$$$RNA1{StrandType:ss}|RNA2{StrandType:as}$	34%
RNA1{r(A)p.r(U)p.r(C)p.r(G)p.r(U)p.r(C)p.r(G)p.r(U)p.r(C)p.r(A)p.r(G)p.r(G)p.r(G)p.m(U)p.r(A)p.r(A)p.r(G)p.r(G)p.r(U)p.r(T)p.r(T)}|RNA2{r(A)p.r(C)p.r(C)p.r(U)p.m(U)p.r(A)p.r(C)p.r(C)p.r(C)p.r(U)p.r(G)p.r(A)p.r(C)p.r(G)p.r(A)p.r(C)p.r(G)p.r(A)p.r(U)p.r(T)p.r(T)}$$$RNA1{StrandType:ss}|RNA2{StrandType:as}$	49%
RNA1{[fl2r](G)p.r(C)p.[fl2r](U)p.r(G)p.[fl2r](U)p.r(A)p.[fl2r](A)p.r(C)p.[fl2r](C)p.r(U)p.[fl2r](C)p.r(G)p.[fl2r](G)p.r(A)p.[fl2r](G)p.r(A)p.[fl2r](G)p.r(U)p.r(U)p.r(T)p.r(T)}|RNA2{r(A)p.r(A)p.r(C)p.r(U)p.r(C)p.r(U)p.r(C)p.r(C)p.r(G)p.r(A)p.r(G)p.r(G)p.r(U)p.r(U)p.r(A)p.r(C)p.r(A)p.r(G)p.r(C)p.r(T)p.r(T)}$$$RNA1{StrandType:ss}|RNA2{StrandType:as}$	51%
RNA1{r(C)p.r(U)p.r(U)p.r(A)p.r(C)p.r(G)p.r(C)p.r(U)p.r(G)p.r(A)p.r(G)p.r(U)p.r(A)p.r(C)p.r(U)p.r(U)p.r(C)p.r(G)p.r(A)p.d(T)p.d(T)}|RNA2{[lna](T)p.r(C)p.r(G)p.r(A)p.r(A)p.r(G)p.r(U)p.r(A)p.r(C)p.r(U)p.r(C)p.r(A)p.r(G)p.r(C)p.r(G)p.r(U)p.r(A)p.r(A)p.r(G)p.[lna](T)p.[lna](T)}$$$RNA1{StrandType:ss}|RNA2{StrandType:as}$	55%
RNA1{r(C)p.r(C)p.r(A)p.[fl2r](G)p.r(C)p.[fl2r](G)p.r(A)p.[fl2r](G)p.r(C)p.r(C)p.r(C)p.r(A)p.r(A)p.r(A)p.r(A)p.[fl2r](G)p.r(A)p.r(A)p.r(A)p.r(T)p.r(T)}|RNA2{[fl2r](U)p.r(U)p.[fl2r](U)p.r(C)p.[fl2r](U)p.r(U)p.[fl2r](U)p.r(U)p.[fl2r](G)p.r(G)p.[fl2r](G)p.r(C)p.[fl2r](U)p.r(C)p.[fl2r](G)p.r(C)p.[fl2r](U)p.r(G)p.[fl2r](G)p.r(T)p.r(T)}$$$RNA1{StrandType:ss}|RNA2{StrandType:as}$	35%
RNA1{r(A)p.r(G)p.r(G)p.r(A)p.r(G)p.r(A)p.r(C)p.r(C)p.r(G)p.[fl2r](U)p.r(G)p.r(A)p.[fl2r](C)p.r(A)p.r(U)p.r(U)p.r(U)p.r(C)p.r(G)p.r(T)p.r(T)}|RNA2{r(C)p.r(G)p.r(A)p.r(A)p.r(A)p.[fl2r](U)p.r(G)p.r(U)p.r(C)p.r(A)p.r(C)p.r(G)p.r(G)p.r(U)p.r(C)p.r(U)p.r(C)p.r(C)p.r(U)p.r(T)p.r(T)}$$$RNA1{StrandType:ss}|RNA2{StrandType:as}$	72%
RNA1{r(G)p.r(A)p.r(A)p.r(C)p.r(U)p.r(C)p.r(U)p.r(U)p.r(A)p.r(G)p.r(C)p.r(G)p.r(U)p.r(A)p.r(U)p.r(G)p.r(C)p.r(A)p.r(A)p.d(T)p.d(T)}|RNA2{r(U)p.r(U)p.r(G)p.r(C)p.r(A)p.r(U)p.r(A)p.r(C)p.r(G)p.r(C)p.r(U)p.r(A)p.r(A)p.r(G)p.r(A)p.r(G)p.r(U)p.r(U)p.r(C)p.d(T)p.d(T)}$$$RNA1{StrandType:ss}|RNA2{StrandType:as}$	56%
RNA1{m(G)p.r(A)p.m(A)p.r(A)p.m(A)p.r(C)p.m(G)p.r(C)p.m(U)p.r(U)p.m(G)p.r(U)p.m(A)p.r(A)p.m(A)p.r(G)p.m(C)p.r(C)p.m(G)p.r(T)p.r(T)}|RNA2{r(C)p.r(G)p.r(G)p.r(C)p.r(U)p.r(U)p.r(U)p.m(A)p.r(C)p.m(A)p.m(A)p.r(G)p.r(C)p.r(G)p.r(U)p.r(U)p.r(U)p.r(U)p.r(C)p.r(T)p.r(T)}$$$RNA1{StrandType:ss}|RNA2{StrandType:as}$	23%
RNA1{r(C)p.r(U)p.r(U)p.r(A)p.r(C)p.r(G)p.r(C)p.r(U)p.r(G)p.r(A)p.r(G)p.r(U)p.r(A)p.r(C)p.r(U)p.r(U)p.r(C)p.r(G)p.r(A)p.d(T)p.d(T)}|RNA2{r(U)p.r(C)p.r(G)p.r(A)p.r(A)p.r(G)p.r(U)p.r(A)p.r(C)p.[lna](T)p.r(C)p.r(A)p.r(G)p.r(C)p.r(G)p.r(U)p.r(A)p.r(A)p.r(G)p.[lna](T)p.[lna](T)}$$$RNA1{StrandType:ss}|RNA2{StrandType:as}$	52%
RNA1{r(C)p.r(U)p.r(U)p.r(A)p.r(C)p.r(G)p.r(C)p.r(U)p.r(G)p.r(A)p.r(G)p.r(U)p.r(A)p.r(C)p.r(U)p.r(U)p.r(C)p.r(G)p.r(A)p.r(T)p.r(T)}|RNA2{r(U)p.r(C)p.r(G)p.r(A)p.r(A)p.r(G)p.r(U)p.r(A)p.r(C)p.r(U)p.r(C)p.r(A)p.r(G)p.r(C)p.r(G)p.r(U)p.r(A)p.[lna](A)p.r(G)p.r(T)p.r(T)}$$$RNA1{StrandType:ss}|RNA2{StrandType:as}$	92%
RNA1{r(C)p.r(U)p.r(U)p.r(A)p.r(C)p.r(G)p.r(C)p.r(U)p.r(G)p.r(A)p.r(G)p.r(U)p.r(A)p.r(C)p.r(U)p.r(U)p.r(C)p.r(G)p.r(A)p.r(T)p.r(T)}|RNA2{r(T)p.r(C)p.r(G)p.r(A)p.r(A)p.[lna](G)p.r(U)p.r(A)p.r(C)p.r(U)p.r(C)p.r(A)p.r(G)p.r(C)p.r(G)p.r(U)p.r(A)p.r(A)p.r(G)p.[lna](T)p.[lna](T)}$$$RNA1{StrandType:ss}|RNA2{StrandType:as}$	85%
RNA1{m(G)p.r(A)p.m(A)p.r(G)p.m(G)p.r(G)p.m(G)p.r(A)p.m(A)p.r(A)p.m(U)p.r(C)p.m(U)p.r(G)p.m(U)p.r(G)p.m(G)p.r(U)p.m(U)p.r(T)p.r(T)}|RNA2{r(A)p.r(A)p.r(C)p.r(C)p.r(A)p.r(C)p.r(A)p.r(G)p.r(A)p.r(U)p.r(U)p.r(U)p.r(C)p.r(C)p.r(C)p.r(C)p.r(U)p.r(U)p.r(C)p.r(T)p.r(T)}$$$RNA1{StrandType:ss}|RNA2{StrandType:as}$	41%
RNA1{r(A)p.r(A)p.r(A)p.r(C)p.r(G)p.r(A)p.r(G)p.r(A)p.r(G)p.r(A)p.r(G)p.r(C)p.r(C)p.r(C)p.r(A)p.r(C)p.r(C)p.r(U)p.r(U)p.r(T)p.r(T)}|RNA2{r(A)p.r(A)p.r(G)p.r(G)p.m(U)p.r(G)p.r(G)p.r(G)p.r(C)p.r(U)p.r(C)p.r(U)p.r(C)p.r(U)p.r(C)p.r(G)p.r(U)p.r(U)p.r(U)p.r(T)p.r(T)}$$$RNA1{StrandType:ss}|RNA2{StrandType:as}$	57%
RNA1{r(G)p.r(U)p.r(A)p.r(U)p.r(U)p.r(G)p.r(A)p.r(C)p.r(A)p.r(G)p.r(C)p.r(U)p.r(A)p.r(U)p.r(U)p.r(C)p.r(G)p.r(A)p.r(A)p.d(T)p.d(T)}|RNA2{r(U)p.r(U)p.r(C)p.r(G)p.r(A)p.r(A)p.r(U)p.r(A)p.r(G)p.r(C)p.r(U)p.r(G)p.r(U)p.r(C)p.r(A)p.r(A)p.r(U)p.r(A)p.r(C)p.d(T)p.d(T)}$$$RNA1{StrandType:ss}|RNA2{StrandType:as}$	73%
RNA1{r(A)p.r(A)p.m(C)p.m(C)p.m(C)p.r(A)p.r(A)p.r(A)p.r(G)p.r(G)p.r(G)p.r(G)p.r(A)p.r(G)p.r(U)p.r(U)p.r(G)p.m(C)p.r(U)p.r(T)p.r(T)}|RNA2{m(A)p.r(G)p.m(C)p.r(A)p.m(A)p.r(C)p.m(U)p.r(C)p.m(C)p.r(C)p.m(C)p.r(U)p.m(U)p.r(U)p.m(G)p.r(G)p.m(G)p.r(U)p.m(U)p.r(T)p.r(T)}$$$RNA1{StrandType:ss}|RNA2{StrandType:as}$	37%
RNA1{r(A)p.r(G)p.r(A)p.r(A)p.r(A)p.m(C)p.r(G)p.m(C)p.r(A)p.r(G)p.m(U)p.r(A)p.r(A)p.m(U)p.m(C)p.m(C)p.r(G)p.r(G)p.r(A)p.r(T)p.r(T)}|RNA2{m(U)p.m(C)p.m(C)p.r(G)p.r(G)p.r(A)p.m(U)p.m(U)p.r(A)p.m(C)p.m(U)p.r(G)p.m(C)p.r(G)p.m(U)p.m(U)p.m(U)p.m(C)p.m(U)p.r(T)p.r(T)}$$$RNA1{StrandType:ss}|RNA2{StrandType:as}$	80%
RNA1{r(C)p.r(U)p.r(U)p.r(A)p.r(C)p.r(G)p.r(C)p.r(U)p.r(G)p.r(A)p.r(G)p.r(U)p.r(A)p.r(C)p.r(U)p.r(U)p.r(C)p.r(G)p.r(A)p.r(T)p.r(T)}|RNA2{r(U)p.r(C)p.r(G)p.[lna](A)p.r(A)p.r(G)p.r(U)p.r(A)p.r(C)p.r(U)p.r(C)p.r(A)p.r(G)p.r(C)p.r(G)p.r(U)p.r(A)p.r(A)p.r(G)p.r(T)p.r(T)}$$$RNA1{StrandType:ss}|RNA2{StrandType:as}$	85%
RNA1{r(G)p.r(G)p.r(G)p.r(A)p.r(A)p.r(A)p.r(C)p.r(U)p.r(G)p.r(A)p.r(A)p.r(A)p.r(G)p.r(G)p.r(C)p.r(U)p.r(A)p.r(U)p.r(G)p.r(T)p.r(T)}|RNA2{[fl2r](C)p.r(A)p.[fl2r](U)p.r(A)p.r(G)p.[fl2r](C)p.[fl2r](C)p.[fl2r](U)p.[fl2r](U)p.[fl2r](U)p.[fl2r](C)p.r(A)p.r(G)p.[fl2r](U)p.[fl2r](U)p.[fl2r](U)p.[fl2r](C)p.[fl2r](C)p.[fl2r](C)p.r(T)p.r(T)}$$$RNA1{StrandType:ss}|RNA2{StrandType:as}$	6%
RNA1{r(A)p.r(G)p.r(A)p.r(C)p.[fl2r](U)p.r(A)p.r(A)p.r(G)p.r(C)p.r(C)p.r(C)p.r(A)p.r(A)p.r(A)p.r(A)p.r(G)p.r(G)p.r(G)p.r(C)p.r(T)p.r(T)}|RNA2{r(G)p.r(C)p.r(C)p.r(C)p.r(U)p.r(U)p.r(U)p.r(U)p.r(G)p.r(G)p.r(G)p.r(C)p.r(U)p.[fl2r](U)p.r(A)p.r(G)p.r(U)p.r(C)p.r(U)p.r(T)p.r(T)}$$$RNA1{StrandType:ss}|RNA2{StrandType:as}$	47%
